Test results taken from US10829481B2, “Benzimidazole derivatives as modulators of ROR-gamma” (Vitae Pharmaceuticals, LLC, priority 2016, dated 2020).

Assays:
[1] = target: recombinant RORγ Ligand Binding Domain (LBD) protein (Homo sapiens (Human), UniProt P51449); assay: Radio-Ligand RORγ Binding Assay (Assay 1); settings: competition with 25-hydroxy [26,27-3H]-cholesterol, SPA
In short: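 His-GST-fused RORγ ligand-binding domain (24 nM solution) competed between compounds and tritiated 25-hydroxycholesterol (8.6 nM solution), read by SPA after brief rt incubations in pH 7.4 HEPES/glycerol/detergent buffer. Four-parameter curve fitting gave IC50 at inflection, converted to Ki using radioligand concentration and KD.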

[2] = target: full-length RORγt in Jurkat cells (Homo sapiens (Human), UniProt P51449); assay: RORγt 5×RORE Assay in Jurkat Cells (Assay 2); assay type: cell-based; settings: 5×RORE Nanoluc luciferase reporter
Sequence of full-length RORγt in Jurkat cells (P51449 other isoform, or with tags, fused parts or gaps): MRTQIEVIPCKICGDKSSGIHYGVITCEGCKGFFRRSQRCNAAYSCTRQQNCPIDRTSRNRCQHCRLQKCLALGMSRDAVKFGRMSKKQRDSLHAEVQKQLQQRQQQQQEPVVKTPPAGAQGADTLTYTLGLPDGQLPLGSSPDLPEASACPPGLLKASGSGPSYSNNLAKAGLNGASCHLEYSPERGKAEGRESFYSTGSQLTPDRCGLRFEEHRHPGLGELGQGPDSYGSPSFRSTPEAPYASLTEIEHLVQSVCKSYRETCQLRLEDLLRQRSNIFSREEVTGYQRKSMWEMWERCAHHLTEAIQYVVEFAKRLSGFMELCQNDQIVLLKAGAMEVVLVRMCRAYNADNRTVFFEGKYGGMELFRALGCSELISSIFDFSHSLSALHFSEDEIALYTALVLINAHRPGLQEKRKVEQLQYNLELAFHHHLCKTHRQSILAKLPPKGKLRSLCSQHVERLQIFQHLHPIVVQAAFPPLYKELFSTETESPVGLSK

Sequence of recombinant RORγ Ligand Binding Domain (LBD) protein (P51449 269-508): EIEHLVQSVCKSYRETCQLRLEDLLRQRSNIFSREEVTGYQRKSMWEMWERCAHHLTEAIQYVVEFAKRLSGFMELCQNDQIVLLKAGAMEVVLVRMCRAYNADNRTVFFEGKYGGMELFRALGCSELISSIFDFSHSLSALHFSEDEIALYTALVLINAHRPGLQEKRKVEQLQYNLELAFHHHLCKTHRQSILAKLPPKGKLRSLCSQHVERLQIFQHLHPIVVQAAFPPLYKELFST

| SMILES | Ki [1] [nM] | IC50 [2] [nM] |
| --- | --- | --- |
| CCS(=O)(=O)c1ccc(CNC(=O)c2ccc3c(c2)nc([C@@H]2C[C@H]2C#N)n3Cc2cccc3c2OC(F)(F)O3)cc1 [I-57, 2-((1R,2R)-2-cyanocyclopropyl)-1-((2,2-difluorobenzo[d][1,3]dioxol-4-yl)methyl)-N-(4-(ethylsulfonyl)benzyl)-1H-benzo[d]imidazole-5-carboxamide] | < 100 | < 100 |
| CCS(=O)(=O)c1ccc(CNC(=O)c2ccc3c(c2)nc([C@@H]2C[C@H]2C(=O)OC)n3Cc2cccc3c2OC(F)(F)O3)cc1 [I-58, methyl(1R,2R)-2-(1-((2,2-difluorobenzo[d][1,3]dioxol-4-yl)methyl)-5-((4-(ethylsulfonyl)benzyl)carbamoyl)-1H-benzo[d]imidazol-2-yl)cyclopropane-1-carboxylate] | < 100 | 100 to 1000 |
| CCS(=O)(=O)c1ccc([C@H](COC)NC(=O)c2ccc3c(c2)nc(C(F)(F)F)n3Cc2cccc3c2OC(F)(F)O3)cc1 [I-59, (R)-1-((2,2-difluorobenzo[d][1,3]dioxol-4-yl)methyl)-N-(1-(4-(ethylsulfonyl)phenyl)-2-methoxyethyl)-2-(trifluoromethyl)-1H-benzo[d]imidazole-5-carboxamide] | < 100 | < 100 |
| CCS(=O)(=O)c1ccc([C@H](COC)NC(=O)c2ccc3c(c2)nc(C2CC2)n3Cc2cccc3c2OC(F)(F)O3)cc1 [I-60, (R)-2-cyclopropyl-1-((2,2-difluorobenzo[d][1,3]dioxol-4-yl)methyl)-N-(1-(4-(ethylsulfonyl)phenyl)-2-methoxyethyl)-1H-benzo[d]imidazole-5-carboxamide] | < 100 | < 100 |
| CCS(=O)(=O)c1ccc([C@H](COC)NC(=O)c2ccc3c(c2)nc(C2(F)CC2)n3Cc2cccc3c2OC(F)(F)O3)cc1 [I-61, (R)-1-((2,2-difluorobenzo[d][1,3]dioxol-4-yl)methyl)-N-(1-(4-(ethylsulfonyl)phenyl)-2-methoxyethyl)-2-(1-fluorocyclopropyl)-1H-benzo[d]imidazole-5-carboxamide] | < 100 | < 100 |
| CCS(=O)(=O)c1ccc([C@H](COC)NC(=O)c2ccc3c(c2)nc(C(F)(F)F)n3Cc2cccc3c2OC(F)(F)O3)nc1 [I-62, (R)-1-((2,2-difluorobenzo[d][1,3]dioxol-4-yl)methyl)-N-(1-(5-(ethylsulfonyl)pyridin-2-yl)-2-methoxyethyl)-2-(trifluoromethyl)-1H-benzo[d]imidazole-5-carboxamide] | < 100 | < 100 |
| CCS(=O)(=O)c1ccc(CNC(=O)c2ccc3c(c2)nc(C(F)(F)F)n3Cc2cccc3c2OC(F)(F)O3)nc1 [I-63, 1-((2,2-difluorobenzo[d][1,3]dioxol-4-yl)methyl)-N-((5-(ethylsulfonyl)pyridin-2-yl)methyl)-2-(trifluoromethyl)-1H-benzo[d]imidazole-5-carboxamide] | < 100 | < 100 |
| CCS(=O)(=O)c1ccc(CNC(=O)c2ccc3c(c2)nc(C2CC2)n3Cc2cccc3c2OC(F)(F)O3)nc1 [I-64, 2-cyclopropyl-1-((2,2-difluorobenzo[d][1,3]dioxol-4-yl)methyl)-N-((5-(ethylsulfonyl)pyridin-2-yl)methyl)-1H-benzo[d]imidazole-5-carboxamide] | < 100 | < 100 |
| CCS(=O)(=O)c1ccc(CNC(=O)c2ccc3c(c2)nc(C2CCC2)n3Cc2cccc3c2OC(F)(F)O3)nc1 [I-65, 2-cyclobutyl-1-((2,2-difluorobenzo[d][1,3]dioxol-4-yl)methyl)-N-((5-(ethylsulfonyl)pyridin-2-yl)methyl)-1H-benzo[d]imidazole-5-carboxamide] | < 100 | < 100 |
| CCS(=O)(=O)c1ccc(CNC(=O)c2ccc3c(c2)nc(C(C)(F)F)n3Cc2cccc3c2OC(F)(F)O3)nc1 [I-66, 1-((2,2-difluorobenzo[d][1,3]dioxol-4-yl)methyl)-2-(1,1-difluoroethyl)-N-((5-(ethylsulfonyl)pyridin-2-yl)methyl)-1H-benzo[d]imidazole-5-carboxamide] | < 100 | < 100 |
| CCS(=O)(=O)c1ccc(CNC(=O)c2ccc3c(c2)nc(C2(F)CC2)n3Cc2cccc3c2OC(F)(F)O3)nc1 [I-67, 1-((2,2-difluorobenzo[d][1,3]dioxol-4-yl)methyl)-N-((5-(ethylsulfonyl)pyridin-2-yl)methyl)-2-(1-fluorocyclopropyl)-1H-benzo[d]imidazole-5-carboxamide] | < 100 | < 100 |
| CS(=O)(=O)c1ccc(CNC(=O)c2ccc3c(c2)nc(C2(F)CC2)n3Cc2cccc3c2OC(F)(F)O3)nc1 [I-68, 1-((2,2-difluorobenzo[d][1,3]dioxol-4-yl)methyl)-2-(1-fluorocyclopropyl)-N-((5-(methylsulfonyl)pyridin-2-yl)methyl)-1H-benzo[d]imidazole-5-carboxamide] | < 100 | < 100 |
| CCS(=O)(=O)c1ccc(CNC(=O)c2ccc3c(c2)nc(C2(F)CCC2)n3Cc2cccc3c2OC(F)(F)O3)nc1 [I-69, 1-((2,2-difluorobenzo[d][1,3]dioxol-4-yl)methyl)-N-((5-(ethylsulfonyl)pyridin-2-yl)methyl)-2-(1-fluorocyclobutyl)-1H-benzo[d]imidazole-5-carboxamide] | < 100 | < 100 |
| CS(=O)(=O)c1ccc(CNC(=O)c2ccc3c(c2)nc(C(F)(F)F)n3Cc2cccc3c2OC(F)(F)O3)nc1 [I-70, 1-((2,2-difluorobenzo[d][1,3]dioxol-4-yl)methyl)-N-((5-(methylsulfonyl)pyridin-2-yl)methyl)-2-(trifluoromethyl)-1H-benzo[d]imidazole-5-carboxamide] | < 100 | < 100 |
| CS(=O)(=O)N1CCC(CNC(=O)c2ccc3c(c2)nc(C(F)(F)F)n3Cc2cccc3c2OC(F)(F)O3)CC1 [I-71, 1-((2,2-difluorobenzo[d][1,3]dioxol-4-yl)methyl)-N-((1-(methylsulfonyl)piperidin-4-yl)methyl)-2-(trifluoromethyl)-1H-benzo[d]imidazole-5-carboxamide] | < 100 | < 100 |
| CS(=O)(=O)N1CCC(CNC(=O)c2ccc3c(c2)nc(C2CC2)n3Cc2cccc3c2OC(F)(F)O3)CC1 [I-72, 2-cyclopropyl-1-((2,2-difluorobenzo[d][1,3]dioxol-4-yl)methyl)-N-((1-(methylsulfonyl)piperidin-4-yl)methyl)-1H-benzo[d]imidazole-5-carboxamide] | < 100 | < 100 |
| CS(=O)(=O)N1CCC(CNC(=O)c2ccc3c(c2)nc(C2(F)CC2)n3Cc2cccc3c2OC(F)(F)O3)CC1 [I-73, 1-((2,2-difluorobenzo[d][1,3]dioxol-4-yl)methyl)-2-(1-fluorocyclopropyl)-N-((1-(methylsulfonyl)piperidin-4-yl)methyl)-1H-benzo[d]imidazole-5-carboxamide] | < 100 | < 100 |
| COC(=O)CS(=O)(=O)N1CCC(CNC(=O)c2ccc3c(c2)nc(C(F)(F)F)n3Cc2cccc3c2OC(F)(F)O3)CC1 [I-74, methyl 2-((4-((1-((2,2-difluorobenzo[d][1,3]dioxol-4-yl)methyl)-2-(trifluoromethyl)-1H-benzo[d]imidazole-5-carboxamido)methyl)piperidin-1-yl)sulfonyl)acetate] | < 100 | < 100 |
| CNC(=O)CS(=O)(=O)N1CCC(CNC(=O)c2ccc3c(c2)nc(C(F)(F)F)n3Cc2cccc3c2OC(F)(F)O3)CC1 [I-75, 1-((2,2-difluorobenzo[d][1,3]dioxol-4-yl)methyl)-N-((1-((2-(methylamino)-2-oxoethyl)sulfonyl)piperidin-4-yl)methyl)-2-(trifluoromethyl)-1H-benzo[d]imidazole-5-carboxamide] | < 100 | < 100 |
| COC(=O)C(NC(=O)c1ccc2c(c1)nc(C(F)(F)F)n2Cc1cccc2c1OC(F)(F)O2)C1CCN(S(C)(=O)=O)CC1 (stereo not drawn) [I-76, methyl 2-(1-((2,2-difluorobenzo[d][1,3]dioxol-4-yl)methyl)-2-(trifluoromethyl)-1H-benzo[d]imidazole-5-carboxamido)-2-(1-(methylsulfonyl)piperidin-4-yl)acetate] | < 100 | < 100 |
| CNS(=O)(=O)N1CCC(CNC(=O)c2ccc3c(c2)nc(C(F)(F)F)n3Cc2cccc3c2OC(F)(F)O3)CC1 [I-77, 1-((2,2-difluorobenzo[d][1,3]dioxol-4-yl)methyl)-N-((1-(N-methylsulfamoyl)piperidin-4-yl)methyl)-2-(trifluoromethyl)-1H-benzo[d]imidazole-5-carboxamide] | < 100 | < 100 |
| NC(=O)CS(=O)(=O)N1CCC(CNC(=O)c2ccc3c(c2)nc(C(F)(F)F)n3Cc2cccc3c2OC(F)(F)O3)CC1 [I-78, N-((1-((2-amino-2-oxoethyl)sulfonyl)piperidin-4-yl)methyl)-1-((2,2-difluorobenzo[d][1,3]dioxol-4-yl)methyl)-2-(trifluoromethyl)-1H-benzo[d]imidazole-5-carboxamide] | < 100 | < 100 |
| CNC(=O)CS(=O)(=O)N1CCC(CNC(=O)c2ccc3c(c2)nc(C2CC2)n3Cc2cccc3c2OC(F)(F)O3)CC1 [I-79, 2-cyclopropyl-1-((2,2-difluorobenzo[d][1,3]dioxol-4-yl)methyl)-N-((1-((2-(methylamino)-2-oxoethyl)sulfonyl)piperidin-4-yl)methyl)-1H-benzo[d]imidazole-5-carboxamide] | < 100 | 100 to 1000 |
| CCS(=O)(=O)c1ccc([C@H](CO)NC(=O)c2ccc3c(c2)nc(C(F)(F)F)n3Cc2cccc3c2OCC3)cc1 [I-80, (R)-1-((2,3-dihydrobenzofuran-7-yl)methyl)-N-(1-(4-(ethylsulfonyl)phenyl)-2-hydroxyethyl)-2-(trifluoromethyl)-1H-benzo[d]imidazole-5-carboxamide] | < 100 | 100 to 1000 |
